Laboratory results from US12642794B2, “Dose regimens for use of LY3154207 in the treatment of dopaminergic CNS disorders” (Eli Lilly and Company, priority 2018, dated 2026).

Assays:
adult rhesus monkey [1] = assay: Spatial Delayed Response Task, spatial working memory; type: in vivo, rhesus macaque
adult rhesus monkey [2] = assay: as above; type: in vivo, rhesus macaque; conditions: for spatial working memory performance after repeat of the dose: 2.5 mg/kg on Day 1 and repeated on Day 5
Experimental: Experimental Overview: A group of both aged and non-aged animals was tested at a single dose of 2.5 mg/kg and their performance was followed daily for the first six days and on alternate days thereafter. This was to ascertain that we could repeat the effects we observed previously at the lowest possible dose. The effects of repeating this dose on Day 5, at the […] mark, were examined in order to determine whether (i) an immediate diminution in performance could still be seen the next day and (ii) whether the treatment could achieve a relatively consistent and enduring enhancement of performance in the following days. Since this dose was also capable of inducing a short term deficit in performance, the effects of single administrations at lower doses of 0.1 and 1.0 mg/kg were examined.
All animals were rhesus macaques except one stumptail (Macaca arctoides). Details of the animal demographics are given with each set of results. It was desired to have younger animals in each study, however a preponderance of aged animals were studied, and females outnumbered males by 2 or 3 to one. The Spatial Delayed Response Task is established as one of the most reliable, sensitive, and valuable models in which to test spatial working memory in primates. The Spatial Delayed Response Task is implemented rigidly in a completely systematic format that is uniform within and between animals and between studies. The Spatial Delayed Response Task is designed to normalize performance across animals such they all normally perform at ˜70% correct. The Spatial Delayed Response Task directly challenges the same spatial working memory circuitry in human and nonhuman primates, including dorsolateral prefrontal cortex, posterior parietal cortex and MD thalamus. The Spatial Delayed Response Task is sensitive to multiple neuropharmacological manipulations, whether administered locally or systemically, including dopaminergic, nicotinic, glutamatergic, and GABAergic agents. In this task one of several well locations are baited with food in view of the animal and then covered with identical plaques. An opaque shutter is then lowered for one of 5 variable delays, and then raised to allow the animal to make a response to one of the well locations to retrieve the food treat. Each animal is stabilized (65-75% correct ±≤2.5%) prior to commencing any administration by varying the number of wells and the lengths of the delay. Each testing session consists of 20 trials, 4 trials at each of 5 delays (distributed semi-randomly) ranging from 0, 1, 2, 3, and 4 N seconds, where N is incremented from 1 to 10 according to ability. The number of wells ranges for 2 to 7 and thus stability is achieved by gradually varying the number of wells and the N factor. Original baseline is achieved on initial training and is standardized over twenty sessions, thereafter an animal typically undergoes regular testing to ensure a reasonably stable baseline. An absolute minimum of three baseline sessions are required prior to any experimental condition. Animals are not food deprived but instead reward for correct responses with their most preferred treats (such as yoghurt raisins, gummy bears, and almonds) and then fed their normal ration of nutritional biscuits shortly after cognitive testing.
DPTQ was formulated as a suspension in 20% Captisol/PBS at pH8. Great care was taken to protect the compound in sonication and it was injected (at a volume of 0.2 ml/kg) via a 21G hypodermic needle (to avoid blockage) into the gluteus maximus within 2 hours of formulation (kept on ice). Vehicle was refrigerated in sterile injectable vials for up to one month. Animals were fully acclimated to all procedures prior to enrollment into any study. They were assigned on a readiness for study basis and where relevant, assignment was semirandom between vehicle and treatment arms. IM injections were performed in the animals' home cage 1 hour prior to cognitive testing. […]

C[C@H]1c2cccc(CC(C)(C)O)c2C[C@H](CO)N1C(=O)Cc1c(Cl)cccc1Cl [DPTQ, 2-(2,6-dichlorophenyl)-1-((1S,3R)-5-(2-hydroxy-2-methylpropyl)-3-(hydroxymethyl)-1-methyl-3,4-dihydroisoquinolin-2 (1H)-yl) ethan-1-one]
acute effect on spatial working memory performance (adult rhesus monkey [1]; acute doses of 2.5 to 10 mg/kg IM): trend in reducing spatial working memory performance | protection against ketamine induced cognitive deficits (adult rhesus monkey [1]; rhesus monkey, in vivo): little effect | diminution in spatial working memory performance (adult rhesus monkey [2]; 0.1 mg/kg): No sign of any diminution in performance | enhancement of spatial working memory performance (adult rhesus monkey [2]; 0.1 mg/kg, 2-week period): modest | spatial working memory performance versus baseline (adult rhesus monkey [2]; 0.1 mg/kg, Day 4): significant improvement over baseline | early deficit in spatial working memory (adult rhesus monkey [2]; 1.0 mg/kg): not evident | enhancement of spatial working memory performance (adult rhesus monkey [2]; 1.0 mg/kg, significance on Day 5): stronger than for the 0.1 mg/kg dose | effect on spatial working memory performance (adult rhesus monkey [2]; 2.5 mg/kg IM, Day 1): No immediate effect | impairment of spatial working memory performance (adult rhesus monkey [2]; 2.5 mg/kg IM, Day 3): ~10% | enhancement of spatial working memory performance (adult rhesus monkey [2]; 2.5 mg/kg IM, starting from Day 4, prolonged): ~10% | duration of sustained positive effect (adult rhesus monkey [2]; 2.5 mg/kg and above): ≥ 14 days | spatial working memory performance after repeat of the dose (adult rhesus monkey [2]; Day 6): distinctive drop in performance | spatial working memory performance after repeat of the dose (adult rhesus monkey [2]; after Day 6): enhancement for the subsequent week | difference between aged and non-aged animals (adult rhesus monkey [2]; 2.5 mg/kg, combined scores for Days 4, 5, and 6): No significant difference | spatial working memory performance (adult rhesus monkey [2]; 24 to 48 hours post injection): substantially impaired | spatial working memory performance (adult rhesus monkey [2]; 96 to 120 hours post injection): considerably enhanced
